Values after ≈ are worked out from the molar mass of the structure shown. Values belong to the compound of their own block, whether it stands above or below them.
Key:
DU-145 [1] = assay: Antiproliferative activity against human DU145 cells assessed as reduction in cell viability incubated for 48 hrs by MTT assay; type: functional, cell-based; conditions: DU-145, 48 h
B2 bradykinin receptor = target: T1, B2 bradykinin receptor (Cavia porcellus, UniProt O70526); assay: Displacement of [3H]BK from Bradykinin B2 Receptor in guinea pig ileum by liquid scintillation counter; type: tissue-based
T1 sequence (O70526 whole entry): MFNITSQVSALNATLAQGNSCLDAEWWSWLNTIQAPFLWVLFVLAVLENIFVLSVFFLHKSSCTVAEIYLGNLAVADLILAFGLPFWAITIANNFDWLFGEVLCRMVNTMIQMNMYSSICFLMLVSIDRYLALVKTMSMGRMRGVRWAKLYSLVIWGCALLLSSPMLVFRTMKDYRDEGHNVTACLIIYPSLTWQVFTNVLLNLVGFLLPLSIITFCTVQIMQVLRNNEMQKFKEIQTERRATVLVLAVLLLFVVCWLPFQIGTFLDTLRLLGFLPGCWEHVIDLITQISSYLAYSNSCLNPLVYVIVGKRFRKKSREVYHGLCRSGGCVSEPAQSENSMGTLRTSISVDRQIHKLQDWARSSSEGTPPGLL

HeLa S3 = assay: Antiproliferative activity against human HeLaS3 cells assessed as reduction in cell viability incubated for 72 hrs by cell counter method; type: functional, cell-based; conditions: HeLa S3, 72 h
Staphylococcus aureus = assay: Antibacterial activity against Staphylococcus aureus ATCC 6538 assessed as reduction in bacterial cell viability incubated for 24 hrs by broth microdilution assay; type: functional, organism-based; conditions: ATCC 6538, 24 h
Beta-secretase 1 = Beta-secretase 1 (Homo sapiens, UniProt P56817); assay: Inhibition of recombinant human BACE 1 using Rh-EVNL-DAEFK-Quencher as substrate incubated for 60 mins by fluorescence based assay
Beta-secretase 1, sequence (P56817 whole entry): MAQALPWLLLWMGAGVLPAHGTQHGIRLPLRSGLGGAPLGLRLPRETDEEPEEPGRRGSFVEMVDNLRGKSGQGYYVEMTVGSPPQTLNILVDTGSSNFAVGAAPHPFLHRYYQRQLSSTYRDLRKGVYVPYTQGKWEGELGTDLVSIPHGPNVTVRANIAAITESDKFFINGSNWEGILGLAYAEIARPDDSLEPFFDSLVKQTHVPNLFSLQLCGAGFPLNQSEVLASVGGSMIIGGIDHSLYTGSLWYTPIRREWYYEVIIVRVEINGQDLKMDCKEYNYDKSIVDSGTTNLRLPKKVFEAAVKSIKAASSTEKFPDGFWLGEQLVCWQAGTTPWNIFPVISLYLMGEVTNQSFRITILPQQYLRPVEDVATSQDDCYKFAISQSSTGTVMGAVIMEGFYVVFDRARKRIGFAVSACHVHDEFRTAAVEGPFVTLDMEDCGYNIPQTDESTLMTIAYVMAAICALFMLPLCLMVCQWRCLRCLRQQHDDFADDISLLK

[2] = target: Telomerase reverse transcriptase (Homo sapiens, UniProt O14746); assay: Inhibition of telomerase (unknown origin)
Telomerase reverse transcriptase, sequence (O14746 whole entry): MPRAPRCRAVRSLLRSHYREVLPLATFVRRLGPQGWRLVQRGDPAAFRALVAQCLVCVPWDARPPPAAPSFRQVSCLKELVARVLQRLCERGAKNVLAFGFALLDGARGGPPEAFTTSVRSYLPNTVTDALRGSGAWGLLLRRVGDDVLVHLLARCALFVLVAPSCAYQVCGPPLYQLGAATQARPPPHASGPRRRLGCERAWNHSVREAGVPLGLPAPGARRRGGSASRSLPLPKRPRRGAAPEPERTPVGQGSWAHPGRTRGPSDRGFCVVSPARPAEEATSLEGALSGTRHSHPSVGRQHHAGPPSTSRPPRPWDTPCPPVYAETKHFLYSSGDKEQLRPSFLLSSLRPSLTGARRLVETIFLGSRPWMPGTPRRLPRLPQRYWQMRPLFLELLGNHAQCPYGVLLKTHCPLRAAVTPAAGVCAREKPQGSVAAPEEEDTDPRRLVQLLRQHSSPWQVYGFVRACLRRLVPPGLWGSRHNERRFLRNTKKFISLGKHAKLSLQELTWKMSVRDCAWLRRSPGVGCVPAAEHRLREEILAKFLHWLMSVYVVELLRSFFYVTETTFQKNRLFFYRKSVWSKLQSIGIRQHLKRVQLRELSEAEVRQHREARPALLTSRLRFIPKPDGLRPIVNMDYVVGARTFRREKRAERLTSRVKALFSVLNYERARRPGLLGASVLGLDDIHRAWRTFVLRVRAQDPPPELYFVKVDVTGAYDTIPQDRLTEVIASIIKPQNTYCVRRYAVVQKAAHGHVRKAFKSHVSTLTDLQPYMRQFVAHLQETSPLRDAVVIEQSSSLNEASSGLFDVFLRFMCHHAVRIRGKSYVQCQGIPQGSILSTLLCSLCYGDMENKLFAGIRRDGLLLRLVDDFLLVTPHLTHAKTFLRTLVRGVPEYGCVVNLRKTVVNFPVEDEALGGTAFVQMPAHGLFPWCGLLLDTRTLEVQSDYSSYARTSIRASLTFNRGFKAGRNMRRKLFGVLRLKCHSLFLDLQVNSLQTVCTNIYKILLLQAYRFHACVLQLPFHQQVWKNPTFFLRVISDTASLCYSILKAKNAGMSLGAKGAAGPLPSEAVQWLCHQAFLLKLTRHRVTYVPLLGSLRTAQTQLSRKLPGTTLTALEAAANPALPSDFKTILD

MGC-803 = assay: Antiproliferative activity against human MGC803 cells; type: functional, cell-based
[3] = Inhibition of recombinant LFA1/ICAM1 (unknown origin) interaction incubated for 1 hr by time resolved fluorimetry; design: species or system Homo sapiens
DU-145 [4] = assay: Antiproliferative activity against human DU145 cells; type: functional, cell-based
Escherichia coli = assay: Antibacterial activity against Escherichia coli assessed as reduction in bacterial cell viability by well plate method; type: functional
Bacillus subtilis = assay: Antibacterial activity against Bacillus subtilis assessed as reduction in bacterial cell viability by well plate method; type: functional
[5] = Inhibition of recombinant LFA1/ICAM1 (unknown origin) interaction in JY-8 cells expressing LFA1 incubated for 45 mins by fluorescence based assay; type: cell-based, Homo sapiens
U-937 = assay: Cell cycle arrest in human U937 cells assessed as increase in accumulation in G2 phase incubated for 6 hrs by propidium iodide staining based flow cytometry; type: functional; conditions: U-937, 6 h
[6] = target: Vascular endothelial growth factor receptor 2 (Homo sapiens, UniProt P35968); assay: Inhibition of VEGFR (unknown origin)
Vascular endothelial growth factor receptor 2, sequence (P35968 whole entry): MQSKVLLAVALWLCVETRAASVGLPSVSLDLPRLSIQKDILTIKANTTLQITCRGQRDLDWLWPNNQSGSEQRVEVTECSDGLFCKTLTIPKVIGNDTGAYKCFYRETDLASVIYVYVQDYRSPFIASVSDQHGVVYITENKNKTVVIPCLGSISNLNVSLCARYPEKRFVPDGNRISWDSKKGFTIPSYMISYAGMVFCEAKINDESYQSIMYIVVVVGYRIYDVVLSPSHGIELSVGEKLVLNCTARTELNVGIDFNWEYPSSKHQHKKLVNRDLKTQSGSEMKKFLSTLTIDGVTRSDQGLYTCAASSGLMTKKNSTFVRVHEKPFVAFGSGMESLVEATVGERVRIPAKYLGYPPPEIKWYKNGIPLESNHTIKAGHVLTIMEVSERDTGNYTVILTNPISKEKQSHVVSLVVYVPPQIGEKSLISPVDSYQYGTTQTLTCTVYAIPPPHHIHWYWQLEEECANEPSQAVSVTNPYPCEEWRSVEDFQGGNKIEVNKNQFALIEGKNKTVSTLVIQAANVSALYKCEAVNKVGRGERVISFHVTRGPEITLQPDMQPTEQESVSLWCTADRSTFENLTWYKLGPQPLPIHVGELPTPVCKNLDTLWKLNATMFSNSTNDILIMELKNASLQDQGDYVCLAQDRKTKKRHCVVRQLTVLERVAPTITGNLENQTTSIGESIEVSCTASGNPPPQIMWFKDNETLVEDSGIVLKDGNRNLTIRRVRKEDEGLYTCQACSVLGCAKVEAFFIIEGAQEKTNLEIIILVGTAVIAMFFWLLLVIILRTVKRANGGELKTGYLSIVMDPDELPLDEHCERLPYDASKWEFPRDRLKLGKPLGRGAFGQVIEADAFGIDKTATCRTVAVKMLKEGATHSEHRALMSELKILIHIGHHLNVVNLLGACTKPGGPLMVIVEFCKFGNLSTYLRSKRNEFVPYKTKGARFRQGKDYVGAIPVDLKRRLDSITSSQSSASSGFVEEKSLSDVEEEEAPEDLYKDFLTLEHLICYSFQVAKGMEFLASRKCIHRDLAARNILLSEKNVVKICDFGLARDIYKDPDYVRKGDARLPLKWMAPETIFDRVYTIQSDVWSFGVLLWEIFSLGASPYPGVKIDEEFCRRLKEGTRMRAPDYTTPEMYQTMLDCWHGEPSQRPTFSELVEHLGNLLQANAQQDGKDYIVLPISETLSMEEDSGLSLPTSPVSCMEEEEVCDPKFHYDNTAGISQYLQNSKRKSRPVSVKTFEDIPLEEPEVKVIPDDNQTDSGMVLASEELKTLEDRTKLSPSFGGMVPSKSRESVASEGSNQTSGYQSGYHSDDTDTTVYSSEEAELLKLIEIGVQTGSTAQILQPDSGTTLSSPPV

[7] = target: Epidermal growth factor receptor (Homo sapiens, UniProt P00533); assay: Inhibition of EGFR (unknown origin)
Epidermal growth factor receptor, sequence (P00533 whole entry): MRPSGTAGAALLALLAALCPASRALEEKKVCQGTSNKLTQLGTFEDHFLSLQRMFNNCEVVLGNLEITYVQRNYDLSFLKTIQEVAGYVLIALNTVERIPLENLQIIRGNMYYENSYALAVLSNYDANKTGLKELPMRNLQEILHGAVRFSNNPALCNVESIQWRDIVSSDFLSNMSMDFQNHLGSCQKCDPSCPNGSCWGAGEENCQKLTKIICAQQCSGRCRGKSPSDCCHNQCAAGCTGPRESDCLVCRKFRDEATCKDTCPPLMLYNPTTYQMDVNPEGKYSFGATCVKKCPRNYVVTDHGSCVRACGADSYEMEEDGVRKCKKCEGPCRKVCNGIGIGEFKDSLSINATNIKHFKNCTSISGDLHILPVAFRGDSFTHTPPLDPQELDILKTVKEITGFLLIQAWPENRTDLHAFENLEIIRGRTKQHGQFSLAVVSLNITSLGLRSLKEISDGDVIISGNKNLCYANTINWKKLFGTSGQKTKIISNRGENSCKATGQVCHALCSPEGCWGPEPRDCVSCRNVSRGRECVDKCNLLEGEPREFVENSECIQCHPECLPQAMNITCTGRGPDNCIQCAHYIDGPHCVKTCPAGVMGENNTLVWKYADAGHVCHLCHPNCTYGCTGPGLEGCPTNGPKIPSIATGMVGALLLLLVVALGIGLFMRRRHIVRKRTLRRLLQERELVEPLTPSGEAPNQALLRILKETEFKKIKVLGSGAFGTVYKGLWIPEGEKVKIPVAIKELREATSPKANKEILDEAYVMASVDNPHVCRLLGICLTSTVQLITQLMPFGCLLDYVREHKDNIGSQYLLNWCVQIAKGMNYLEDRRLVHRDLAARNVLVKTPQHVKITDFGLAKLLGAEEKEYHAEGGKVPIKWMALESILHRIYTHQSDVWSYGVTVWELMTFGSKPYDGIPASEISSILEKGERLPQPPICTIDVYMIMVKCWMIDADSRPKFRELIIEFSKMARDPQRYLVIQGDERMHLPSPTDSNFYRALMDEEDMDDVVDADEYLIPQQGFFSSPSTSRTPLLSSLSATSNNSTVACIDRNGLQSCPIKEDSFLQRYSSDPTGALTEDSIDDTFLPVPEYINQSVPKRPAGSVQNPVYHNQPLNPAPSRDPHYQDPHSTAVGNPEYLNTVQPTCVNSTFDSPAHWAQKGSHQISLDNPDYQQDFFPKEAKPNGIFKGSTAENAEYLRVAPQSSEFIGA

P388 = assay: Antiproliferative activity against mouse P388 cells assessed as reduction in cell viability by MTT assay; type: functional, cell-based
HT-29 = assay: Antiproliferative activity against human HT-29 cells assessed as reduction in cell viability by MTT assay; type: functional, cell-based
MCF7 = assay: Antiproliferative activity against human MCF7 cells assessed as reduction in cell viability incubated for 48 hrs by MTT assay; type: functional, cell-based; conditions: MCF7, 48 h
[8] = target: T2, Amine oxidase [flavin-containing] B (Homo sapiens, UniProt P27338); assay: Inhibition of recombinant human MAOB using kynuramine as substrate preincubated with substrate for 10 mins followed by enzyme addition and measured after 20 mins by fluorescence spectrophotometry
T2 sequence (P27338 whole entry): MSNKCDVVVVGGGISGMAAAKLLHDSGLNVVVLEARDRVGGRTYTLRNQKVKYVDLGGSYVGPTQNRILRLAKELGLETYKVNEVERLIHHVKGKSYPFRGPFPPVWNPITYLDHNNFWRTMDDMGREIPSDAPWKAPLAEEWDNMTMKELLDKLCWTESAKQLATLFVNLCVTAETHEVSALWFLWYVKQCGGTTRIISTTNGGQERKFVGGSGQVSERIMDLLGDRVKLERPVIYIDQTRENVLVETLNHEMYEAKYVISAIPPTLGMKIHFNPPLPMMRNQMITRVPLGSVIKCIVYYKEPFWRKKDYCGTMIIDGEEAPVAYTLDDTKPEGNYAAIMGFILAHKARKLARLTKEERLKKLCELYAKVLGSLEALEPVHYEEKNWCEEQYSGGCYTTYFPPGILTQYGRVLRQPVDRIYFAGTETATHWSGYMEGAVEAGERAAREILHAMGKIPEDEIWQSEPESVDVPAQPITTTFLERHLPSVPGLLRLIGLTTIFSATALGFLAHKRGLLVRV

[9] = Antioxidant activity assessed as DPPH free radical scavenging activity by spectrophotometry; type: functional

Compound: COc1ccc(/C=C/C(=O)N2C[C@H]3C[C@@]34C2=CC(=O)c2[nH]c(C)c(Br)c24)cc1
IC50 (HeLa S3): 0.065 nM

Compound: COc1cc(/C=C/C(=O)NNC(=O)c2ccccc2)cc(OC)c1OC
IC50 (Staphylococcus aureus): 85200 nM

Compound: CCCc1n[nH]c(C(N)=O)c1NC(=O)/C=C/c1ccco1
IC50 [2]: 1020 nM | IC50 (MGC-803): 3010 nM

Compound: CC(=O)N1CCN(C(=O)/C=C/c2ccc(Sc3ccc(Cl)cc3Cl)c([N+](=O)[O-])c2)CC1
IC50 [3]: 90 nM

Compound: O=C(/C=C/c1ccc(O)cc1)N1Cc2ccccc2[C@@H](OCc2ccccc2)[C@@H]1CO
IC50 (DU-145 [4]): 2080 nM

Compound: O=C(O)C1CCCN(C(=O)/C=C/c2ccc(Sc3ccc4c(c3)OCCO4)c(C(F)(F)F)c2)C1 (configuration not stated)
IC50 [3]: 25 nM

Compound: CCc1ccccc1Sc1ccc(/C=C/C(=O)N2CCN(C(C)=O)CC2)cc1[N+](=O)[O-]
IC50 [5]: 65 nM

Compound: COc1ccc(/C=C/C(=O)NC23CC4CC(CC(C4)C2)C3)c2ccccc12
IC50 (U-937): 7100 nM

Compound: COc1ccc(/C=C/C(=O)Nc2cc3c(Nc4ccc(F)c(Cl)c4)ncnc3cc2O[C@@H]2CCOC2)cc1
IC50 [6]: 3.6 nM | IC50 [7]: 9 nM

Compound: CCCCCCCCCCCCNC(=O)/C=C/c1ccccc1 [N-DODECYLCINNAMAMIDE]
IC50 (MCF7): 11100 nM

Results, then the compound that gave them:

IC50 (DU-145 [1]): 7480 nM
Compound: C=CCOc1cc(/C=C/C(=O)Nc2cc(OC)c(OC)c(OC)c2)ccc1N/C=C\C(=O)c1cc(N)c(OC)c(OC)c1

IC50 (B2 bradykinin receptor): 0.46 nM
Compound: CNC(=O)c1ccc(/C=C/C(=O)NCC(=O)N(C)c2ccc(Cl)c(COc3cccc4ccc(C)nc34)c2Cl)cn1

IC50 (Beta-secretase 1): 86700 nM
Compound: O=C(/C=C/c1ccccc1)NCCc1cc2cc(O)ccc2[nH]1

IC50 (MGC-803): 4240 nM
Compound: CCCc1n[nH]c(C(N)=O)c1NC(=O)/C=C/c1cc(OC)c(OC)c(OC)c1

MIC (Escherichia coli): 25 µM (≈ 7.68 µg/mL) | MIC (Bacillus subtilis): 25 µM (≈ 7.68 µg/mL)
Compound: COc1cc(/C=C/C(=O)N2CCOCC2)cc(OC)c1OC

IC50 (P388): 4000 nM | IC50 (HT-29): 4000 nM
Compound: COc1cc(/C=C/C(=O)NCCc2cc(OC)c(O)c(OC)c2)ccc1O

EC50 [8]: 1200 nM
Compound: O=C(/C=C/c1ccc(O)cc1)NCCc1c[nH]c2ccc(O)cc12 [N-P-COUMAROYL SEROTONIN]

EC50 [9]: 8100 nM
Compound: O=C(/C=C/c1ccc(O)c(O)c1)NCCc1c[nH]c2ccc(O)cc12 [N-CAFFEOYLSEROTONIN]

From ChEMBL document CHEMBL4359862, “Cinnamamide: An insight into the pharmacological advances and structure-activity relationships” (Eur J Med Chem, 2019)
